# Target: T1, GST-FAK (N-terminal GST fusion with truncated human FAK (376-1052 (end) amino acids)) (Homo sapiens, UniProt Q05397)
# T1 construct: truncated human FAK (376-1052 (end) amino acids)
# Experiment: Biochemical enzyme assay for FAK activity (Caliper LC3000 mobility shift)
# Settings: Table 5; 100 uM ATP; read-out: FAK IC50
# Outline: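 Inhibitor dose series in DMSO were incubated 90 min at 25 °C with truncated GST-tagged human FAK (0.067 ng/µl) and FITC-labelled peptide substrate (1 µM), with ATP at 100 µM and FERM peptide at 1 mM (pH 7.5 HEPES). After EDTA quench, phosphorylated and unphosphorylated peptides were resolved electrophoretically. Percent conversion was fitted for IC50.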
# T1 sequence (Q05397 376-1052): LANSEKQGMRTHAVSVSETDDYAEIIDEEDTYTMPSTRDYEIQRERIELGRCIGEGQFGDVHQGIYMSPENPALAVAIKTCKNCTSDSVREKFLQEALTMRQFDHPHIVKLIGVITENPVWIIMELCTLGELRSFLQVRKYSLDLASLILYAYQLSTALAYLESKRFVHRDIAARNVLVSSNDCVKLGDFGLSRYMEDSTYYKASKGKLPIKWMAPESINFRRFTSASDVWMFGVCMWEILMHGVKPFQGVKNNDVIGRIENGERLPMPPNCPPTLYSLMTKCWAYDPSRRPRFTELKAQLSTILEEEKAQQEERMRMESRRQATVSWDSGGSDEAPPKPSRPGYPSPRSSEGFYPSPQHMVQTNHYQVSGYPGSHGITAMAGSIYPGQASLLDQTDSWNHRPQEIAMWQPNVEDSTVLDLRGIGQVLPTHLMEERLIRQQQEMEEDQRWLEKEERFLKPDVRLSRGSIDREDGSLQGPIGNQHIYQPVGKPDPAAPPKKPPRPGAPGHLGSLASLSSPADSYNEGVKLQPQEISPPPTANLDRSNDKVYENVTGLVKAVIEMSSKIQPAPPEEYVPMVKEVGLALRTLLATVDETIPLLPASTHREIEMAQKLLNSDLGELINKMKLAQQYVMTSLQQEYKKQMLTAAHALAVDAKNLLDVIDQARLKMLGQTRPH
row,IC50,Structure (SMILES)
1,1000 to 10000 nM,"COc1cc(NC(=O)c2cc(NCc3ccc(F)cc3F)nc(-c3cncc(C(F)(F)F)c3)n2)ccn1 [Compound 232, 6-(2,4-Difluoro-benzylamino)-2-(5-trifluoromethyl-pyridin-3-yl)-pyrimidine-4-carboxylic acid (2-methoxy-pyridin-4-yl)-amide]"
2,100 to 1000 nM,"COc1ncccc1NC(=O)c1cc(NCc2ccc(F)cc2F)nc(-c2cncc(C(F)(F)F)c2)n1 [Compound 233, 6-(2,4-Difluoro-benzylamino)-2-(5-trifluoromethyl-pyridin-3-yl)-pyrimidine-4-carboxylic acid (2-methoxy-pyridin-3-yl)-amide]"
3,100 to 1000 nM,"Fc1ccc(CNc2nc(-c3cncc(C(F)(F)F)c3)nc3[nH]cnc23)c(F)c1 [Compound 237, (2,4-Difluoro-benzyl)-[2-(5-trifluoromethyl-pyridin-3-yl)-9H-purin-6-yl]-amine]"
4,100 to 1000 nM,"Cn1cc(NC(=O)c2cc(NCc3ccc(F)cc3F)nc(-c3cncc(C(F)(F)F)c3)n2)cn1 [Compound 246, 6-(2,4-Difluoro-benzylamino)-2-(5-trifluoromethyl-pyridin-3-yl)-pyrimidine-4-carboxylic acid (1-methyl-1H-pyrazol-4-yl)-amide]"
5,> 10000 nM,"Fc1ccc(CNc2cc(-c3cncc(C(F)(F)F)c3)ncn2)c(F)c1 [Compound 254, (2,4-Difluoro-benzyl)-[6-(5-trifluoromethyl-pyridin-3-yl)-pyrimidin-4-yl]-amine]"
6,100 to 1000 nM,"Cn1cc(-c2cc(NCc3ccc(F)cc3F)nc(-c3cncc(C(F)(F)F)c3)n2)cn1 [Compound 257, (2,4-Difluoro-benzyl)-[6-(1-methyl-1H-pyrazol-4-yl)-2-(5-trifluoromethyl-pyridin-3-yl)-pyrimidin-4-yl]-amine]"
7,100 to 1000 nM,"CN1CCN(C(=O)c2cc(NCc3ccc(F)cc3F)nc(-c3cncc(C(F)(F)F)c3)n2)CC1 [Compound 259, [6-(2,4-Difluoro-benzylamino)-2-(5-trifluoromethyl-pyridin-3-yl)-pyrimidin-4-yl]-(4-methyl-piperazin-1-yl)-methanone]"
8,< 100 nM,"O=C(c1cc(NCc2ccc(F)cc2F)nc(-c2cncc(C(F)(F)F)c2)n1)N1CCOCC1 [Compound 260, [6-(2,4-Difluoro-benzylamino)-2-(5-trifluoromethyl-pyridin-3-yl)-pyrimidin-4-yl]-morpholin-4-yl-methanone]"
9,100 to 1000 nM,"O=C(Nc1cccnc1)c1cc(NCc2ccc(F)cc2F)nc(-c2cncc(C(F)(F)F)c2)n1 [Compound 261, 6-(2,4-Difluoro-benzylamino)-2-(5-trifluoromethyl-pyridin-3-yl)-pyrimidine-4-carboxylic acid pyridin-3-ylamide]"
10,100 to 1000 nM,"CNC(=O)C1(NC(=O)c2cc(NCc3ccc(F)cc3F)nc(-c3cncc(C(F)(F)F)c3)n2)CC1 [Compound 262, 6-(2,4-Difluoro-benzylamino)-2-(5-trifluoromethyl-pyridin-3-yl)-pyrimidine-4-carboxylic acid (1-methylcarbamoyl-cyclopropyl)-amide]"
11,< 100 nM,"CC(NC(=O)c1cc(NCc2ccc(F)cc2F)nc(-c2cncc(C(F)(F)F)c2)n1)C(N)=O (stereo not drawn) [Compound 263, 6-(2,4-Difluoro-benzylamino)-2-(5-trifluoromethyl-pyridin-3-yl)-pyrimidine-4-carboxylic acid (1-carbamoyl-ethyl)-amide]"
12,< 100 nM,"CN(C)C(=O)c1cc(NCc2ccc(F)cc2F)nc(-c2cncc(C(F)(F)F)c2)n1 [Compound 264, 6-(2,4-Difluoro-benzylamino)-2-(5-trifluoromethyl-pyridin-3-yl)-pyrimidine-4-carboxylic acid dimethylamide]"

# The next lines start with the compound.
row,Structure (SMILES),IC50
1,"CNC(=O)c1ccccc1CNc1ccnc(-c2cncc(C(F)(F)F)c2)n1 [Compound 234, N-Methyl-2-{[2-(5-trifluoromethyl-pyridin-3-yl)-pyrimidin-4-ylamino]-methyl}-benzamide]",1000 to 10000 nM
2,"O=C1c2ccccc2CN1c1ccnc(-c2cncc(C(F)(F)F)c2)n1 [Compound 235, 2-[2-(5-Trifluoromethyl-pyridin-3-yl)-pyrimidin-4-yl]-2,3-dihydro-isoindol-1-one]",> 10000 nM
3,"CS(=O)(=O)Nc1cccc(-c2nc(NCc3ccc(F)cc3F)c3nc[nH]c3n2)c1 [Compound 236, N-{3-[6-(2,4-Difluoro-benzylamino)-9H-purin-2-yl]-phenyl}-methanesulfonamide]",> 10000 nM
4,"FC(F)(F)c1cncc(-c2nccc(NCc3cccnc3)n2)c1 [Compound 238, Pyridin-3-ylmethyl-[2-(5-trifluoromethyl-pyridin-3-yl)-pyrimidin-4-yl]-amine]",100 to 1000 nM
5,"FC(F)(F)c1cncc(-c2nccc(Nc3cn[nH]c3)n2)c1 [Compound 239, (1H-Pyrazol-4-yl)-[2-(5-trifluoromethyl-pyridin-3-yl)-pyrimidin-4-yl]-amine]",1000 to 10000 nM
6,"Fc1ccc(CNc2ccnc(-c3cccc(C(F)(F)F)c3)n2)c(F)c1 [Compound 240, (2,4-Difluoro-benzyl)-[2-(3-trifluoromethyl-phenyl)-pyrimidin-4-yl]-amine]",> 10000 nM
7,"CS(=O)(=O)Nc1cccc(-c2nccc(NCc3ccc(F)cc3F)n2)c1 [Compound 241, N-{3-[4-(2,4-Difluoro-benzylamino)-pyrimidin-2-yl]-phenyl}-methanesulfonamide]",> 10000 nM
8,"CS(=O)(=O)Nc1cccc(-c2nc(NCc3ccc(F)cc3F)c3ncn(C4CCCCO4)c3n2)c1 (stereo not drawn) [Compound 242, N-{3-[6-(2,4-Difluoro-benzylamino)-9-(tetrahydro-pyran-2-yl)-9H-purin-2-yl]-phenyl}-methanesulfonamide]",> 10000 nM
9,"Fc1ccc(CNc2nc(-c3cncc(C(F)(F)F)c3)nc3c2ncn3C2CCCCO2)c(F)c1 (stereo not drawn) [Compound 243, (2,4-Difluoro-benzyl)-[9-(tetrahydro-pyran-2-yl)-2-(5-trifluoromethyl-pyridin-3-yl)-9H-purin-6-yl]-amine]",100 to 1000 nM
10,"Fc1cc(Cl)ccc1CNc1nccc(-c2cncc(C(F)(F)F)c2)n1 [Compound 244, (4-Chloro-2-fluoro-benzyl)-[4-(5-trifluoromethyl-pyridin-3-yl)-pyrimidin-2-yl]-amine]",100 to 1000 nM
11,"CS(=O)(=O)Nc1cccc(-c2nccc(NCc3ccc(F)cc3C(F)(F)F)n2)c1 [Compound 245, N-{3-[4-(4-Fluoro-2-trifluoromethyl-benzylamino)-pyrimidin-2-yl]-phenyl}-methanesulfonamide]",> 10000 nM
12,"Fc1ccc(CNc2nccc(-c3cncc(C(F)(F)F)c3)n2)c(C(F)(F)F)c1 [Compound 247, (4-Fluoro-2-trifluoromethyl-benzyl)-[4-(5-trifluoromethyl-pyridin-3-yl)-pyrimidin-2-yl]-amine]",< 100 nM
13,"Fc1ccc(CNc2nccc(-c3cncc(C(F)(F)F)c3)n2)c(F)c1 [Compound 248, (2,4-Difluoro-benzyl)-[4-(5-trifluoromethyl-pyridin-3-yl)-pyrimidin-2-yl]-amine]",< 100 nM
14,"CS(=O)(=O)N1CCOC(CNc2ccnc(-c3cncc(C(F)(F)F)c3)n2)C1 (stereo not drawn) [Compound 249, (4-Methanesulfonyl-morpholin-2-ylmethyl)-[2-(5-trifluoromethyl-pyridin-3-yl)-pyrimidin-4-yl]-amine]",1000 to 10000 nM
15,"CCOC(=O)c1ccccc1Nc1ccnc(-c2cncc(C(F)(F)F)c2)n1 [Compound 250, 2-[2-(5-Trifluoromethyl-pyridin-3-yl)-pyrimidin-4-ylamino]-benzoic acid ethyl ester]",> 10000 nM
16,"CN(c1ncccc1CNc1nccc(-c2cncc(C(F)(F)F)c2)n1)S(C)(=O)=O [Compound 251, N-Methyl-N-(3-{[4-(5-trifluoromethyl-pyridin-3-yl)-pyrimidin-2-ylamino]-methyl}-pyridin-2-yl)-methanesulfonamide]",1000 to 10000 nM
17,"Fc1ccc(CNc2cc(-c3cncc(C(F)(F)F)c3)ncn2)c(C(F)(F)F)c1 [Compound 252, (4-Fluoro-2-trifluoromethyl-benzyl)-[6-(5-trifluoromethyl-pyridin-3-yl)-pyrimidin-4-yl]-amine]",1000 to 10000 nM
18,"Fc1cc(Cl)ccc1CNc1cc(-c2cncc(C(F)(F)F)c2)ncn1 [Compound 253, (4-Chloro-2-fluoro-benzyl)-[6-(5-trifluoromethyl-pyridin-3-yl)-pyrimidin-4-yl]-amine]",1000 to 10000 nM
19,"CN(C)C(=O)c1ccccc1Nc1ccnc(-c2cncc(C(F)(F)F)c2)n1 [Compound 255, N,N-Dimethyl-2-[2-(5-trifluoromethyl-pyridin-3-yl)-pyrimidin-4-ylamino]-benzamide]",> 10000 nM
20,"CNC(=O)c1ccccc1Nc1ccnc(-c2cncc(C(F)(F)F)c2)n1 [Compound 256, N-Methyl-2-[2-(5-trifluoromethyl-pyridin-3-yl)-pyrimidin-4-ylamino]-benzamide]",> 10000 nM
21,"Cn1cc(-c2cc(NCc3ccc(F)cc3F)nc(-c3cnn(C)c3)n2)cn1 [Compound 258, [2,6-Bis-(1-methyl-1H-pyrazol-4-yl)-pyrimidin-4-yl]-(2,4-difluoro-benzyl)-amine]",1000 to 10000 nM
22,"CN(c1ncccc1CNc1ccnc(-c2cncc(C(F)(F)F)c2)n1)S(C)(=O)=O [Compound 265, N-Methyl-N-(3-{[2-(5-trifluoromethyl-pyridin-3-yl)-pyrimidin-4-ylamino]-methyl}-pyridin-2-yl)-methanesulfonamide]",1000 to 10000 nM
23,"Fc1ccc(CNc2cc(-c3cncc(C(F)(F)F)c3)nc(-c3cncc(C(F)(F)F)c3)n2)c(F)c1 [Compound 266, [2,6-Bis-(5-trifluoromethyl-pyridin-3-yl)-pyrimidin-4-yl]-(2,4-difluoro-benzyl)-amine]",1000 to 10000 nM
24,"CC(Nc1ccnc(-c2cncc(C(F)(F)F)c2)n1)c1ccccc1F (stereo not drawn) [Compound 267, [1-(2-Fluoro-phenyl)-ethyl]-[2-(5-trifluoromethyl-pyridin-3-yl)-pyrimidin-4-yl]-amine]",100 to 1000 nM
